The test system of assay [1] is nitric oxide (NO). Nature of the assay: Measurement of nitric oxide (NO) in penile tissues. The format is in vivo. The settings on record: male Sprague-Dawley rats, orally administered for 7 days twice a day; AFG 200 and 400 mg/kg/day, BGE 400 mg/kg/day; vs control group; FIG. 9. The protocol:
(§1) 8 weeks old male Sprague-Dawley rats were obtained from Orient Co., Ltd. (Korea) and used as exprimental animals. A breeding cage was conditioned with artificial lighting for 12 hours (8:00 a.m. to 8:00 p.m) and maintained at 20±3° C. The rats were provided with purified water and fed with pellet diet (Samyang diet, Korea). Food and water were not limited and supplied to the rats at a certain time of 9:00 a.m. to 10:00 a.m. every day.
8 weeks old male Sprague-Dawley rats were allowed to be adapted to the environment of the breeding cage. Depending on their body weight, the rats were divided into 5 groups of control group (saline), Viagra® group (1.7 mg/kg/day), two AFG groups (200 and 400 mg/kg/day) and BGE (conventional red ginseng) group (400 mg/kg/day) and orally administered for 7 days twice a day (in the morning and in the afternoon). The amount of dietary intake was measured at a certain time of 9:00 a.m. to 10:00 a.m. every day. […]
The amount of the produced nitric oxide was measured by a method which slightly modifies methods proposed by Park (J. Ethnopharmacol, 2004) and Knowles (Biochem. J, 1990). […]
For 200 μL of the supernatant, the fluorescence intensity of DAF was measured at 485 nm of excitation wavelength and at 535 nm of emission wavelength using a fluorescence reader (TECAN Trading AG, Switzerland).

Assay [2] has as its system activated eNOS. The assay can be described thus: Expression of activated eNOS in endothelial cells. The format is cell-based. The settings on record: immunoblotting, FIG. 11. The protocol: Endothelial cells (BAECs) previously treated with the samples were washed with cold PBS buffer (pH 7.2) twice and then treated with RIPA lysis buffer [50 mM Tris-HCl, 150 mM NaCl, 0.5% sodium deoxycholate, 1% NP 40, 1% phosphatase inhibitor cocktail, 1 mM PMSF] in 150 μL/well to collect cell extracts. The protein content of the collected cell extracts was determined using Bradford assay, and then 25 μg of the protein was separated by using SDS-PAGE and transferred to nitrocellulose membrane. The nitrocellulose membrane was blocked with 1% BSA (Bovine serum albumin) solution at room temperature for 1 hour, and reacted with a primary antibody specific for the target protein at 4° C. for 12 hours. Upon completion of the reaction, the nitrocellulose membrane was washed with TBST (10 mM Tris-HCl, 150 mM NaCl, 0.05% NP 40) several times, and reacted with a secondary antibody binding to HRP (Horse radish peroxidase) at room temperature for 1 hour. After that, the nitrocellulose membrane was washed again with TBST and the target protein was confirmed by using ECL solution. To identify the target protein, luminesent image analyzer (LAS 4000 mini) were used. […] It is possible to produce nitric oxide (NO) when eNOS is phosphorylated to be activated. […]
On the technique in general: Immunoblotting shows a protein as a band on a membrane.

Assay [3] concerns arginase. The settings on record: for Km: read-out: Km of arginase; for Km / Vmax of arginase: substrate of arginase, 55° C., 10 minutes, pH 10.0.
Protocol: 20 mU arginase was dissolved in 150 μL of 0.1M carbonate-bicarbonate buffer (pH 10.0). […] After that, 750 μL of acetic acid was added to the reaction mixture so as to stop the reaction. Then, 250 μL of ninhydrin solution was added to the mixture and was reacted at 100° C. for 1 hour. The reaction mixture was cooled and the absorbance was measured at 515 nm using ELISA reader.
A standard curve was created by using 0.01-10 μM of L-ornithine, and then the arginase activity was calculated and represented from the ornithine standard curve.
The test system of assay [4] is cGMP. Nature of the assay: Measurement of cGMP in penile tissues. The format is in vivo. The settings on record: male Sprague-Dawley rats, FIG. 10. The procedure: as §1
8 weeks old male Sprague-Dawley rats were allowed to be adapted to the environment of the breeding cage. Depending on their body weight, the rats were divided into 5 groups of control group (saline), Viagra® group (1.7 mg/kg/day), two AFG groups (200 and 400 mg/kg/day) and BGE (conventional red ginseng) group (400 mg/kg/day) and orally administered for 7 days twice a day (in the morning and in the afternoon). The amount of dietary intake was measured at a certain time of 9:00 a.m. to 10:00 a.m. every day.
After the end of feeding period, the rats were fasted for 12 hours and anesthetized with […]. […]
The concentration of cGMP was measured by a method which slightly modifies methods proposed by Park (J. Ethnopharmacol, 2004) and Knowles (Biochem. J, 1990). […]
A standard curve was created by using 0.8-50 pmol/mL of cGMP, and the concentration of cGMP was measured by cGMP ELISA kit (Aassay Designs, Inc., Michigan). […]

Assay [5] relates to eNOS. The assay can be described thus: Expression of eNOS in penile tissues by immunoblotting. The note with it: male Sprague-Dawley rats, orally administered for 7 days twice a day; AFG 200 and 400 mg/kg/day, BGE 400 mg/kg/day; vs control group; FIG. 8. The format is in vivo. The protocol:
as §1
(§2) 8 weeks old male Sprague-Dawley rats were allowed to be adapted to the environment of the breeding cage. […] The amount of dietary intake was measured at a certain time of 9:00 a.m. to 10:00 a.m. every day. […]
(§3) After quickly pouring liquid nitrogen into the tissues and pulverizing the tissues, proteins were extracted by RIPA lysis buffer (pH 7.4) containing 50 mM Tris-HCl, 1% NP-40, 0.25% sodium deoxycholate, 150 mM NaCl, 1 mM EDTA, 1 mM PMSF, 1 mM sodium orthovanadate, 1 mM NaF, 1 mg/mL aprotinin, 1 mg/mL leupeptin and 1 mg/mL pepstatin. After quantifying the extracted proteins using Bio-Rad protein assay kit, 30 μg and 40 μg of proteins were separated by SDS-PAGE using 8% acrylamide gel for 2 hours, and transferred to nitrocellulose membrane with being blocked by 2% BSA. […]

Assay [6] relates to nNOS. The assay can be described thus: Expression of nNOS in penile tissues by immunoblotting. The note with it: male Sprague-Dawley rats, orally administered for 7 days twice a day; AFG 200 and 400 mg/kg/day, BGE 400 mg/kg/day; vs control group; FIG. 8. The format is in vivo. The protocol: as §1, §2, §3

One may read the Km as the substrate concentration at which the rate is half of its maximum. On to `NC(N)=NCCC[C@H](NC[C@@]1(O)OC[C@@H](O)[C@@H](O[C@@H]2O[C@H](CO)[C@@H](O)[C@H](O)[C@H]2O)[C@@H]1O)C(=O)O` [AFG, arginyl-fructosyl-glucose], for which the “production of nitric oxide (NO) in the penile tissues” value in assay [1] is reported as “increased”. Moreover, in assay [2], the “expression of the activated eNOS in the endothelial cells (BAECs)” value is given as “increased”. For the same molecule, in assay [3], the “decomposition rate of arginase as compared with arginine” value was “very low”, the Michaelis constant (Km) turned out to be 129 µM and the Vmax of arginase is 588 µmol/min. Also, the “concentration of cGMP in the penile tissues” value in assay [4] (orally administered for 7 days twice a day, AFG 200 and 400 mg/kg/day, BGE 400 mg/kg/day, Viagra 1.7 mg/kg/day, vs negative control group) is listed as “increased”. Also, the “increase of the concentration of cGMP compared with the positive control group of Viagra” value in assay [4] (penile tissues) is recorded as “less than the positive control group”. Also, the “expression of eNOS in the penile tissues” value in assay [5] is given as “increased”. Besides, in assay [6], the “expression of nNOS in the penile tissues” value is given as “increased”.
Turning to `N=C(N)NCCC[C@H](N)C(=O)O` [Arginine, L-arginine], in assay [3], the Km was 12 µM and the Vmax of arginase is on record as 1,000 μmoles/min.
